“Also recorded” adds a separate entry of the source.
Legend:
[1] = system: FGF21 binding to FGFR isoforms 1c, 2c, 3c, 4; assay: Pull-down and plate binding of FGF21 to FGFR isoforms with sKL or heparin; design: species or system human
Description: To study the interaction between Fc-tagged FGFR isoforms (Fc-FGFR), FGF isoforms, and sKL, immunoprecipitation studies were conducted. Protein A beads (6501, BioVision) and protein G beads (6511, BioVision) were used at 25 μl of a 50% stock slurry per sample in a total bead volume of 50 μl. Beads were washed 5× in activity buffer (50 mM Tris [pH 7.4], 200 mM NaCl, 0.01% Tween 20). Bead spin-down assays were all performed for 2 minutes at 5000 g. Beads were resuspended in 1 ml of activity buffer in a 1.5-ml snap cap tube. One microgram of Fc-FGFR1 to 4 was incubated with the beads for 1 hour on a bead rotator. Control samples were incubated with 2 μg of anti-FGF antibody instead of Fc-FGFR. […] Samples were analyzed using SDS-PAGE and Western blotting.
Proteins were coated on 96-well plates (MaxiSorp; 439454, Thermo Fisher Scientific), and proteins were added to wells in 100 μl of enzyme-linked immunosorbent assay (ELISA) coating buffer (E107, Bethyl Laboratories) with a lid placed overtop and incubated at 4° C. overnight. […] Reactions were stopped with ELISA stop solution (E115, Bethyl Laboratories) and analyzed using the Synergy HI plate reader (BioTek) at 450 nm wavelength. […] As a control to remove background absorbance values, wells were coated with an equal amount of BSA to match the amount of protein coated in experimental wells and treated the same as experimental wells. […]

[2] = system: adult rat ventricular myocytes (ARVMs); assay: Calcium transients and cell shortening in adult rat ventricular myocytes; assay type: cell-based
Description: As done before,^69 adult male Wistar rats (150-200 g) were killed and hearts were quickly removed and cannulated via the ascending aorta on a Langendorff system where they were retrograde perfused and digested by type II collagenase. Hearts were perfused with calcium-free Tyrode's solution supplemented with 0.2 mmol/L of ethyleneglycol-bis-((3-aminoethylether)-N,N, N′,N′-tetraacetic acid for 3 minutes. For the digestion, hearts were perfused with Tyrode's solution containing 0.1 mmol/L of CaCl2), 1 mg/ml of type II collagenase (Worthington), and 1 mg/ml of BSA for 3 to 4 minutes at room temperature. Cells were resuspended in Tyrode's solution containing 1 mmol/L of CaCl2). Tyrode's solution contains 130 mM NaCl, 5.4 mM KCl, 0.4 mM NaH2PO4, 0.5 mM MgCl2, 25 mM N-2-hydroxyethylpiperazine-N-2-ethanesulfonic acid, and 22 mM glucose. Adult rat ventricular myocytes (ARVMs) were loaded with the fluorescent Ca^2+ dye Fluo-3 AM (Thermo Fisher Scientific) for cytosolic Ca^2+ measurements. Loaded ARVMs were acutely perfused during 2 minutes with vehicle, FGF23 (10 ng/ml), or a combination of FGF23 and heparin (0.7 USP/ml). Cytosolic Ca^2+ transients were recorded under 1 Hz of field stimulation using 2 parallel platinum electrodes. Images were obtained with confocal microscopy (Zeiss LSM 510-META microscope), using a 40× objective by scanning the cell with an argon laser every 1.54 ms. Fluo-3 AM was excited at 488 nm, and emissions were collected at >505 nm. Cell contraction was stimulated as the difference in cell length between rest and contraction (during electrical stimulation), expressed as a percentage of shortening of the cell length. Image analysis was performed with self-made routines using IDL (Research Systems) and ImageJ (v1.53) software.

[3] = molecular target: T1, FGF23 binding to FGFR2c (Homo sapiens, UniProt P21802); assay: Plate-based binding, FGF23 coated, then sKL, heparin or PBS, then Fc-FGFR; conditions: with sKL, with heparin 0.4 USP, or alone
T1 construct: Fc-coupled FGFR ectodomains were immobilized on protein A/G beads; purchased R&D Systems 2604FG025/CF or 2629FG025/CF; 712FR050
Description: (§1) Proteins were coated on 96-well plates (MaxiSorp; 439454, Thermo Fisher Scientific), and proteins were added to wells in 100 μl of enzyme-linked immunosorbent assay (ELISA) coating buffer (E107, Bethyl Laboratories) with a lid placed overtop and incubated at 4° C. overnight. Plates were washed 5× with 350 μl of assay buffer (50 mM Tris [pH 7.4], 200 mM NaCl, 0.01% Tween 20) on a 50 TS microplate washer (BioTek). Plates were blocked for 1 hour in 200 μl of assay buffer with 0.5% BSA. Plates were washed as before, and proteins were incubated on plates in 100 μl of assay buffer with 0.5% BSA. Proteins or heparin was incubated in orders described in the respective figure legends. Assays using FLAG-tag-based detection were incubated with anti-FLAG coupled to HRP at 1:20,000, and assays using Fc detection were incubated with anti-human Fc coupled to HRP at 1:10,000. Plates were washed as above, and 100 μl of 3,3′,5,5′-tetramethylbenzidine (TMB) substrate (E102, Bethyl Laboratories) was added for 15 to 20 minutes until positive wells developed a dark blue color. Reactions were stopped with ELISA stop solution (E115, Bethyl Laboratories) and analyzed using the Synergy HI plate reader (BioTek) at 450 nm wavelength. […] As a control to remove background absorbance values, wells were coated with an equal amount of BSA to match the amount of protein coated in experimental wells and treated the same as experimental wells. To study the effects of sKL on the binding between paracrine FGFs and FGFRs, plates were run as above except coated with paracrine FGFs. Fc-FGFR1 was preincubated with sKL or vehicle for 60 minutes, and then the combination was added to wells and the assay was run as before.

[4] = molecular target: T2, FGF23 binding to FGFR1c (Homo sapiens, UniProt P11362+Q9GZV9); assay: as above; conditions: with sKL, with heparin 0.4 USP, or alone
T2 construct: Fc-coupled FGFR ectodomains were immobilized on protein A/G beads; purchased R&D Systems 2604FG025/CF or 2629FG025/CF; 658FR050
Description: as §1

[5] = molecular target: T3, FGF23 binding to FGFR3c (Homo sapiens, UniProt P22607+Q9GZV9); assay: as above; conditions: with sKL, with heparin 0.4 USP, or alone
T3 construct: Fc-coupled FGFR ectodomains were immobilized on protein A/G beads; purchased R&D Systems 2604FG025/CF or 2629FG025/CF; 766FR050
Description: as §1

[6] = molecular target: T4, FGF23 binding to FGFR4 (Homo sapiens, UniProt P22455+Q9GZV9); assay: as above; conditions: with sKL, with heparin 0.4 USP, or alone
T4 construct: Fc-coupled FGFR ectodomains were immobilized on protein A/G beads; purchased R&D Systems 2604FG025/CF or 2629FG025/CF; 685FR050
Description: as §1

T1 sequence (P21802 22-377 limits assumed): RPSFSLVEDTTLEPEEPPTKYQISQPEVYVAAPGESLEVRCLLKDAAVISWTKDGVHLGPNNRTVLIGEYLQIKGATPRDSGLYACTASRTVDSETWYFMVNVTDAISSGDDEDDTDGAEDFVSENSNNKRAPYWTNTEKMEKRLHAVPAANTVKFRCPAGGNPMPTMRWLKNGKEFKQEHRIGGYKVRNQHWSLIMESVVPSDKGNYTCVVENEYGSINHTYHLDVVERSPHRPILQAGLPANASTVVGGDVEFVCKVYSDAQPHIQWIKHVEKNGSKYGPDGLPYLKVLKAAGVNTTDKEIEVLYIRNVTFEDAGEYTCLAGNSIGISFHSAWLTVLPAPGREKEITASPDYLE
T2 sequence (Q9GZV9 25-251): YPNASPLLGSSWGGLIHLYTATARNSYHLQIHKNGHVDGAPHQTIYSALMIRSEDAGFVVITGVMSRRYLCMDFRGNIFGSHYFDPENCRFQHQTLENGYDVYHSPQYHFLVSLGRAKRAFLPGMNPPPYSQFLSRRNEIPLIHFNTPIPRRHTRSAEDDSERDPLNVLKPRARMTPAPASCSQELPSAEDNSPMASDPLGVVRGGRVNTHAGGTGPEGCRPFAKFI
T2 sequence (P11362 22-376 limits assumed): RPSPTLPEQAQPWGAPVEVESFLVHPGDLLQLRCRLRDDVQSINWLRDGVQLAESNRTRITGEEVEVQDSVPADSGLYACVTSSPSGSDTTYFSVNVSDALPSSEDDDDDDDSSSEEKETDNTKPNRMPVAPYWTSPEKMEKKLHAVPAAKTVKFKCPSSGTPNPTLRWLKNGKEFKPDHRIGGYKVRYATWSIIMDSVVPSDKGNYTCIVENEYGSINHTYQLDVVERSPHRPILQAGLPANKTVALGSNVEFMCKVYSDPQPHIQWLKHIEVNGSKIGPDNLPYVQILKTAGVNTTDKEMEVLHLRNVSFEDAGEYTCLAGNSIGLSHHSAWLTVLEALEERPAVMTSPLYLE
T4 sequence (Q9GZV9 25-251): as the sequence (Q9GZV9 25-251) above
T4 sequence (P22455 22-369 limits assumed): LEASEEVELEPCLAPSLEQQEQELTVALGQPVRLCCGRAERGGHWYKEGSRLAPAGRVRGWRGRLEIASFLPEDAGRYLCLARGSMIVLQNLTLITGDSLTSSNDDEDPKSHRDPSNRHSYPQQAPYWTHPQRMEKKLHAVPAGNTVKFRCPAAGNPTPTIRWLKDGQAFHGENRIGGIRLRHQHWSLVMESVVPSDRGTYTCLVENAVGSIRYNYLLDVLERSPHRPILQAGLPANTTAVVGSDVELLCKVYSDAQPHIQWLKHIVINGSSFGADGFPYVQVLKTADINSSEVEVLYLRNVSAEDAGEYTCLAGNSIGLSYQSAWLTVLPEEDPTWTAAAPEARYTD
T3 sequence (Q9GZV9 25-251): as the sequence (Q9GZV9 25-251) above
T3 sequence (P22607 23-375 limits assumed): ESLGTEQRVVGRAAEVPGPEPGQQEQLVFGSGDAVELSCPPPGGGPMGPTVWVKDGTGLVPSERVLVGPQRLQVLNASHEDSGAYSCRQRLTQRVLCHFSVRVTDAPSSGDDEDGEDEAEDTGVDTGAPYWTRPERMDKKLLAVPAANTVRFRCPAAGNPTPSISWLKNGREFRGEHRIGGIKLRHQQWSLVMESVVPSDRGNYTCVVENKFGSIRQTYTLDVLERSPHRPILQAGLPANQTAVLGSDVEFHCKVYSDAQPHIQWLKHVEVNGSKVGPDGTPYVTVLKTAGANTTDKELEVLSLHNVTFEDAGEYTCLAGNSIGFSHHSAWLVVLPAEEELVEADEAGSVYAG

## heparin [reference compound]
[1]
  binding of FGF21 to any of the FGFR isoforms: does not mediate binding
[2]; FGF23 10 ng/ml with heparin 0.7 USP/ml
  FGF23 effect on [Ca2+]i transients in the presence of heparin: became statistically significant; also recorded: significantly increased
[2]; FGF23 with heparin
  FGF23 effect on cell shortening with addition of heparin: significantly increased the effect of FGF23
[2]; heparin 0.7 USP/ml
  [Ca2+]i transients, heparin by itself: no significant effects
[2]; heparin alone
  cell shortening, heparin by itself: no significant effects
[3]
  binding of coated FGF23 to Fc-FGFR2c: to a much lesser extent to FGFR2c; also recorded: weaker binding to FGFR2c
[4]
  binding of coated FGF23 to Fc-FGFR1c: no measurable binding
[5]
  binding of coated FGF23 to Fc-FGFR3c: no measurable binding
[6]
  binding of coated FGF23 to Fc-FGFR4: significantly increased; also recorded: the strongest
